From PMC10600239, “Selective MCL-1 inhibitor ABBV-467 is efficacious in tumor models but is associated with cardiac troponin increases in patients” (Communications Medicine, 2023)
Values joined by “and” are separate entries in the source; they are usually repeats but may differ in a detail not shown here. Equal entries are not always repeated.

System: AMO-1 xenografts
Assay: AMO-1 xenograft efficacy (tumor volume, body weight)
Format: in vivo, mouse
Conditions: for % Weight Change (individual weights) / Weight, g (individual weights): individual animal, Day 21; for Xenograft AMO-1 (DSMZ) (mm³) Day 16 / Xenograft AMO-1 (DSMZ) (mm³) Day 19: tumor volume
Experimental: All animal studies were conducted in accordance with the guidelines approved by the Institutional Animal Care and Use Committees of AbbVie. The research protocol was approved by In Vivo Pharmacology at AbbVie prior to study initiation but was not publicly registered or disclosed. Female C.B-17 SCID-beige mice (AMO-1, OPM-2, NCI-H929, and OCI-AML2 xenografts) and female NSG mice (MV4-11-Red.Fluc systemic) were purchased from Charles River Laboratories (Wilmington, MA). Animals were housed in a light cycle-controlled room with HEPA filtration at 22 °C. Animals had nesting and climbing cage topper as the primary environmental enrichment. Animals were inoculated subcutaneously in the right flank with 5 × 10^6 (AMO-1, OPM-2, NCI-H929, and OCI-AML2) or intravenous (IV) with 5 × 10^6 (MV4-11-Red.Fluc). The inoculation volume (0.2 mL) comprised a 50:50 mixture of cells in growth media and Matrigel (BD Biosciences) for subcutaneous injections and 100% phosphate-buffered saline for IV administration. All cell lines used in this publication were authenticated using IDEXX for STR profiling as well as their IMPACT and human IMPACT panels for pathogen screening. Electronic calipers were used to measure the length and width of each tumor 2 to 3 times per week. Tumor volume was estimated by applying the following equation: volume = length × width^2/2. All groups remained blinded during measurements and dosing; only veterinary staff were aware of group identity. When tumors reached approximately 200 mm^3, mice were randomized by match and distributed into treatment and control groups. All xenograft trials were conducted using 5 to 10 mice per group, and all mice were ear tagged and monitored individually throughout the studies. […] Tumor burden in the systemic MV4-11-Red.Fluc experiment was measured using an IVIS® spectrum from PerkinElmer by taking the total photon flux of the entire dorsal side of an individual mouse. […] A background control mouse that was tumor naive but received D-Luciferin was placed in the upper left corner of each image. The total flux from this animal was subtracted from the total flux of each animal present in the image.
For in vivo studies, maximal tumor growth inhibition (TGI) was calculated as the greatest treatment response using the following equation: Maximal TGI = (1 − mean tumor volume of the treated group/mean tumor volume of the vehicle control group) × 100. The tumor growth delay (TGD) percentage was determined as the percentage increase of the median time period for the treatment group to reach an arbitrary tumor volume of 1000 mm^3 relative to the vehicle control group. […] A power analysis was conducted using historical data to determine the number of animals required to yield significance of 0.05 at a 30% difference. […] Data from experiments in vivo were analyzed using the student’s t-test for TGI values and the Mann–Whitney U test for TGD using Excel and GraphPad Prism. Fisher’s exact test was used to probe significance of differences in response frequency.

[1] = 25 mg/kg, Q7Dx2, IV, SCID-beige female mice, Day 91
[2] = Day 14, 6.25 mg/kg Q7Dx2 IV, control Group 01
[3] = Day 14, 25 mg/kg Q7Dx2 IV, control Group 01
[4] = Day 80, 25 mg/kg Q7Dx2 IV, SCID-beige female mice
[5] = Day 82, 25 mg/kg Q7Dx2 IV, SCID-beige female mice
[6] = SCID-beige female mice, 25 mg/kg Q7Dx2 IV, Day 47, remaining animals
[7] = SCID-beige female mice, 25 mg/kg Q7Dx2 IV, Day 75
[8] = SCID-beige female mice, 25 mg/kg Q7Dx2 IV, Day 88, surviving animals
[9] = control Group 01, 6.25 mg/kg Q7Dx2 IV
[10] = control Group 01, 25 mg/kg Q7Dx2 IV

Cc1c(Cl)c2c(Cl)c(C)c1-c1c(-c3ccc(F)cc3)sc3ncnc(c13)O[C@@H](C(=O)O)Cc1cc(ccc1OCc1ccnc(-c3ccc(OC[C@H]4COCCO4)cc3)n1)OC[C@@H](CN1CCN(C)CC1)O2 [Compound A-1747745.0]
Xenograft AMO-1 (DSMZ) tumor volume Day 91, Mean [1]: 22.37 mm³
Xenograft AMO-1 (DSMZ) tumor volume Day 91, Median [1]: 22.37 mm³
Xenograft AMO-1 (DSMZ) tumor volume Day 91, individual animal [1]: 22 mm³
% Mortality (AMO-1 (DSMZ) xenograft, SCID-beige mouse, 6.25 mg/kg IV Q7Dx2): 100.00%
% Mortality (AMO-1 (DSMZ) xenograft, SCID-beige mouse, 25 mg/kg IV Q7Dx2): 100.00%
% BW Loss (AMO-1 (DSMZ) xenograft, SCID-beige mouse, 25 mg/kg IV Q7Dx2, day 21): -2% (day 21)
Body Weight Day 14, % T/C (mean) [2]: 96.25%
Body Weight Day 14, % T/C (median) [2]: 96.25%
Body Weight Day 14, % T/C (mean) [3]: 98.12%
Body Weight Day 14, % T/C (median) [3]: 98.12%
Xenograft AMO-1 (DSMZ) tumor volume, Mean [4]: 10.80 mm³
Xenograft AMO-1 (DSMZ) tumor volume, Median [4]: 10.80 mm³
Xenograft AMO-1 (DSMZ) tumor volume, individual animal [4]: 11 mm³
Xenograft AMO-1 (DSMZ) tumor volume, Mean [5]: 12.07 mm³
Xenograft AMO-1 (DSMZ) tumor volume, Median [5]: 12.07 mm³
Xenograft AMO-1 (DSMZ) tumor volume, individual animal [5]: 12 mm³
Xenograft AMO-1 (DSMZ) tumor volume Day 47 (individual animal) (SCID-beige female mice, 25 mg/kg Q7Dx2 IV, Day 47): 8 mm³
Xenograft AMO-1 (DSMZ) tumor volume Day 47, Mean [6]: 8.10 mm³
Xenograft AMO-1 (DSMZ) tumor volume Day 47, Median [6]: 8.10 mm³
Xenograft AMO-1 (DSMZ) Day 75 tumor volume, Mean [7]: 13.50 mm³
Xenograft AMO-1 (DSMZ) Day 75 tumor volume, Median [7]: 13.50 mm³
Xenograft AMO-1 (DSMZ) Day 75 tumor volume, individual animals [7]: 14 mm³
Xenograft AMO-1 (DSMZ) Day 88 (tumor volume, individual animals) (SCID-beige female mice, 25 mg/kg Q7Dx2 IV, Day 88): 15 mm³
Xenograft AMO-1 (DSMZ) Day 88, Mean [8]: 14.75 mm³
Xenograft AMO-1 (DSMZ) Day 88, Median [8]: 14.75 mm³
Xenograft AMO-1 (DSMZ) (mm³) Day 84, Mean (group mean tumor volume of remaining animals, SCID-beige female mice, 25 mg/kg Q7Dx2 IV, Day 84): 5.32 mm³
Xenograft AMO-1 (DSMZ) (mm³) Day 16 Mean (group mean, Day 16, 3.13 mg/kg QDx1 IV): 205.11 mm³
Xenograft AMO-1 (DSMZ) (mm³) Day 16 Mean (group mean, Day 16, 6.25 mg/kg QDx1 IV): 172.06 mm³
Xenograft AMO-1 (DSMZ) (mm³) Day 19 Mean (group mean, Day 19, 3.13 mg/kg QDx1 IV): 192.25 mm³
Xenograft AMO-1 (DSMZ) (mm³) Day 19 Mean (group mean, Day 19, 6.25 mg/kg QDx1 IV): 133.62 mm³
Xenograft AMO-1 (DSMZ) (mm³) Day 70, Mean (group mean, 25 mg/kg Q7Dx2 IV, SCID-beige mice, Day 70): 24.72 mm³
Xenograft AMO-1 (DSMZ) (mm³) Day 84, Median (group median tumor volume of remaining animals, SCID-beige female mice, 25 mg/kg Q7Dx2 IV, Day 84): 5.32 mm³
Xenograft AMO-1 (DSMZ) (mm³) Day 16 Median (group median, Day 16, 3.13 mg/kg QDx1 IV): 207.59 mm³
Xenograft AMO-1 (DSMZ) (mm³) Day 16 Median (group median, Day 16, 6.25 mg/kg QDx1 IV): 173.79 mm³
Xenograft AMO-1 (DSMZ) (mm³) Day 19 Median (group median, Day 19, 3.13 mg/kg QDx1 IV): 202.67 mm³
Xenograft AMO-1 (DSMZ) (mm³) Day 19 Median (group median, Day 19, 6.25 mg/kg QDx1 IV): 134.81 mm³
Xenograft AMO-1 (DSMZ) (mm³) Day 70, Median (group median, 25 mg/kg Q7Dx2 IV, SCID-beige mice, Day 70): 24.72 mm³
Xenograft AMO-1 (DSMZ) (mm³) Day 84 (individual animal tumor volume, SCID-beige female mice, 25 mg/kg Q7Dx2 IV, Day 84): 5.32 mm³
% Weight Change (individual weights) (6.25 mg/kg IV Q7Dx2): 0.65%
Weight, g (individual weights) (6.25 mg/kg IV Q7Dx2): 22.14 g
% Weight Change (individual weights) (25 mg/kg IV Q7Dx2): -1.91%
Weight, g (individual weights) (25 mg/kg IV Q7Dx2): 22.00 g
Body Weight (g) Day 14 (individual animals, Day 14, 3.13 mg/kg QDx1 IV): 22 g
Body Weight (g) Day 14 (individual animals, Day 14, 6.25 mg/kg QDx1 IV): 22 g
Xenograft AMO-1 (DSMZ) (mm³) Day 70 (individual animals, 25 mg/kg Q7Dx2 IV, SCID-beige mice, Day 70): 25 mm³
Body Weight Day 14, % T/C (mean) (Day 14, 3.13 mg/kg QDx1 IV): 102.98%
Body Weight Day 14, % T/C (mean) (Day 14, 6.25 mg/kg QDx1 IV): 102.98%
Xenograft AMO-1 Day 16 % T/C (mean) (Day 16, 3.13 mg/kg QDx1 IV): 61.23%
Xenograft AMO-1 Day 16 % T/C (mean) (Day 16, 6.25 mg/kg QDx1 IV): 51.36%
Xenograft AMO-1 Day 19 % T/C (mean) (Day 19, 3.13 mg/kg QDx1 IV): 44.28%
Xenograft AMO-1 Day 19 % T/C (mean) (Day 19, 6.25 mg/kg QDx1 IV): 30.78%
% T/C (mean), Body Weight Day 21 [9]: 96.87%
% T/C (mean), Body Weight Day 21 [10]: 96.25%
Body Weight Day 14, % T/C (median) (Day 14, 3.13 mg/kg QDx1 IV): 102.98%
Body Weight Day 14, % T/C (median) (Day 14, 6.25 mg/kg QDx1 IV): 102.98%
Xenograft AMO-1 Day 16 % T/C (median) (Day 16, 3.13 mg/kg QDx1 IV): 62.33%
Xenograft AMO-1 Day 16 % T/C (median) (Day 16, 6.25 mg/kg QDx1 IV): 52.18%
Xenograft AMO-1 Day 19 % T/C (median) (Day 19, 3.13 mg/kg QDx1 IV): 51.55%
Xenograft AMO-1 Day 19 % T/C (median) (Day 19, 6.25 mg/kg QDx1 IV): 34.29%
% T/C (median), Body Weight Day 21 [9]: 96.87%
% T/C (median), Body Weight Day 21 [10]: 96.25%
Relative to initial body wt., % (mouse, in vivo, iv, 3.13 mg/kg): 0.00%
Body Weight (g) Day 14 (individual animals) (mouse, in vivo, iv, 6.25 mg/kg): 22 g
Body Weight (g) Day 14, Mean (mouse, in vivo, iv, 6.25 mg/kg): 22.00 g
Body Weight (g) Day 14, Median (mouse, in vivo, iv, 6.25 mg/kg): 22.00 g
Body Weight (g) Day 21 (mouse, in vivo, iv, 6.25 mg/kg): 22 g
Body Weight (g) Day 21 Mean (mouse, in vivo, iv, 6.25 mg/kg): 22.14 g
Body Weight (g) Day 21 Median (mouse, in vivo, iv, 6.25 mg/kg): 22.14 g
Body Weight (g) Day 14 (individual animals) (mouse, in vivo, iv, 25 mg/kg): 22 g
Body Weight (g) Day 14, Mean (mouse, in vivo, iv, 25 mg/kg): 22.43 g
Body Weight (g) Day 14, Median (mouse, in vivo, iv, 25 mg/kg): 22.43 g
Body Weight (g) Day 21 (mouse, in vivo, iv, 25 mg/kg): 22 g
Body Weight (g) Day 21 Mean (mouse, in vivo, iv, 25 mg/kg): 22.00 g
Body Weight (g) Day 21 Median (mouse, in vivo, iv, 25 mg/kg): 22.00 g
Xenograft AMO-1 (DSMZ) (mm³) Day 16 (individual animals, Day 16, 3.13 mg/kg QDx1 IV): 195 mm³ and 171 mm³ and 227 mm³ and 217 mm³ and 219 mm³ and 212 mm³ and 203 mm³ and 196 mm³
Xenograft AMO-1 (DSMZ) (mm³) Day 16 (individual animals, Day 16, 6.25 mg/kg QDx1 IV): 158 mm³ and 174 mm³ (2×) and 187 mm³ and 182 mm³ and 167 mm³ and 173 mm³ and 160 mm³
Xenograft AMO-1 (DSMZ) (mm³) Day 19 (individual animals, Day 19, 3.13 mg/kg QDx1 IV): 210 mm³ and 196 mm³ and 181 mm³ and 173 mm³ and 128 mm³ and 213 mm³ and 209 mm³ and 227 mm³
Xenograft AMO-1 (DSMZ) (mm³) Day 19 (individual animals, Day 19, 6.25 mg/kg QDx1 IV): 142 mm³ and 122 mm³ and 113 mm³ and 105 mm³ and 128 mm³ and 144 mm³ and 162 mm³ and 152 mm³
